Source: patent US11046694B2, “Compounds and methods for treating bacterial infections” (Entasis Therapeutics, Inc., priority 2018, dated 2021)
In brackets after ≈: the same amount, converted by molar mass. Where a name gives a salt, the structure may show the parent alone.

Assays:
P. aeruginosa PBP1a = P. aeruginosa PBP1a (Pseudomonas aeruginosa, UniProt Q07806); assay type: biochemical; conditions: P. aeruginosa PBP1a 60 nM, BOCILLIN FL 30 nM, pH 7.0
P. aeruginosa PBP2 = molecular target: T1, P. aeruginosa PBP2 (Pseudomonas aeruginosa, UniProt Q9X6V3); assay type: biochemical; conditions: P. aeruginosa PBP2 300 nM, BOCILLIN FL 30 nM, pH 6.2
T1 sequence (Q9X6V3 1-646): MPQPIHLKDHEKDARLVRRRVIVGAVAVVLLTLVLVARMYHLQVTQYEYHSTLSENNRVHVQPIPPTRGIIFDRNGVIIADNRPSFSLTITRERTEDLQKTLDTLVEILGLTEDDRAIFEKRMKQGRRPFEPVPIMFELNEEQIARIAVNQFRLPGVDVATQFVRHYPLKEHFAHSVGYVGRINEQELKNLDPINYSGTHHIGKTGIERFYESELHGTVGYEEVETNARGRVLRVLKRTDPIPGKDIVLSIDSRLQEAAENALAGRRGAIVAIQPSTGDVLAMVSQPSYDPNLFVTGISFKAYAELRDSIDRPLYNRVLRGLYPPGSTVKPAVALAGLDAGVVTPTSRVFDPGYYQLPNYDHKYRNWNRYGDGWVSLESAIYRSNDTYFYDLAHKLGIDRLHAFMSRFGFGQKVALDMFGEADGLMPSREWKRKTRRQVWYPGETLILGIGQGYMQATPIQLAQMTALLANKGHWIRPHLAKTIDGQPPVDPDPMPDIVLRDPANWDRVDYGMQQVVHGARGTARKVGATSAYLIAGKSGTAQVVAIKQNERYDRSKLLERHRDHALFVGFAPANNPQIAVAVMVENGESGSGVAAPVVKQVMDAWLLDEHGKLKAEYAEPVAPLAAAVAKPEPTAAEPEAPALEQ

P. aeruginosa PBP3 = P. aeruginosa PBP3 (Pseudomonas aeruginosa, UniProt G3XD46); assay type: biochemical; conditions: P. aeruginosa PBP3 60 nM, BOCILLIN FL 30 nM, pH 7.0
Sequence of P. aeruginosa PBP3 (G3XD46 whole entry): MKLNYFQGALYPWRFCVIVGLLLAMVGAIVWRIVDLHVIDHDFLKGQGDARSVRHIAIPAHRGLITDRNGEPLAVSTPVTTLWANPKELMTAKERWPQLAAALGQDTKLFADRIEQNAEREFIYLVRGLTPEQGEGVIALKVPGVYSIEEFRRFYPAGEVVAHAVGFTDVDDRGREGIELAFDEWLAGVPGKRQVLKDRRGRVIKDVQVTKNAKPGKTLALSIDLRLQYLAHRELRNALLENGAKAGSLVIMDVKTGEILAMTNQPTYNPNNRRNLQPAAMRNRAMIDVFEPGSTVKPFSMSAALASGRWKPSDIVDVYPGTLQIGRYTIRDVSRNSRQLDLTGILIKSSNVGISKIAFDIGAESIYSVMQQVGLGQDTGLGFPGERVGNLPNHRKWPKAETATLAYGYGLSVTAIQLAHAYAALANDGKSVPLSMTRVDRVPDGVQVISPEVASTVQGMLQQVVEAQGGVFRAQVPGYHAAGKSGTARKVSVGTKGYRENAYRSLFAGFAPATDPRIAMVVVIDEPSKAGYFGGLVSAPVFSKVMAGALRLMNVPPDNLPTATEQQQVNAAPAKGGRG

P. aeruginosa WT (PAO1) = assay: MIC, CLSI broth microdilution, P. aeruginosa; assay type: cell-based; conditions: Pseudomonas aeruginosa, PAO1; CLSI broth microdilution; read-out: P. aeruginosa WT (PAO1) MIC
E. coli (ATCC25922) = assay: MIC against E. coli; conditions: Escherichia coli, ATCC25922, read-out: E. coli MIC (ATCC25922) (mg/L)
A. baumannii (ARC3495) = assay: MIC against A. baumannii; conditions: Acinetobacter baumannii, read-out: A. baumannii MIC (ARC3495) (mg/L)
[1] = tested on: K. pneumoniae (ATCC700603); assay: MIC against K. pneumoniae; conditions: Klebsiella pneumoniae, ATCC700603, read-out: K. pneumoniae MIC (ATCC700603)

Sequence of P. aeruginosa PBP1a (Q07806 whole entry): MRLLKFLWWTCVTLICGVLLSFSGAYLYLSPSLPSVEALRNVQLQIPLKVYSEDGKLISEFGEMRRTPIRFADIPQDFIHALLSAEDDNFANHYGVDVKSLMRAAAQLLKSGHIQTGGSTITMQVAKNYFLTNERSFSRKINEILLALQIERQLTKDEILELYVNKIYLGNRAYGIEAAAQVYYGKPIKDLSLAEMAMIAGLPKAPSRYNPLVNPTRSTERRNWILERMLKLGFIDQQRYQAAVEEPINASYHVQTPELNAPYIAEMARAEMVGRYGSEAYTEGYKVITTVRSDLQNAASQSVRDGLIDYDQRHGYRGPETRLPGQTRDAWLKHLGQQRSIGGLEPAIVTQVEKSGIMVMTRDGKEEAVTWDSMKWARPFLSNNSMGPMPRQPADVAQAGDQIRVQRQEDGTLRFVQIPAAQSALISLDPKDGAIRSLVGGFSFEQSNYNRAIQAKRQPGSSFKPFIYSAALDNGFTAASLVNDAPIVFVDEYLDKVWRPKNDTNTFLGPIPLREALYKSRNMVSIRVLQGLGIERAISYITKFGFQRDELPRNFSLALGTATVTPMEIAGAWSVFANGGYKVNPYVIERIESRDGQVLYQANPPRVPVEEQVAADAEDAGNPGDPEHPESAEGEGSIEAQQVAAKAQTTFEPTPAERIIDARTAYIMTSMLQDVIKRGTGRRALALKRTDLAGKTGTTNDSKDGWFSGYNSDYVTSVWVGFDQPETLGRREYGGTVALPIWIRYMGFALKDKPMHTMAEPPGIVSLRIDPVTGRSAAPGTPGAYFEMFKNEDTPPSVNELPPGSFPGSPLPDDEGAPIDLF

SMILES	PBP1a acylation rate, k(on) (M^−1 · s^−1) (P. aeruginosa PBP1a)	PBP2 acylation rate, k(on) (M^−1 · s^−1) (P. aeruginosa PBP2)	PBP3 acylation rate, k(on) (M^−1 · s^−1) (P. aeruginosa PBP3)	MIC (P. aeruginosa WT (PAO1)) [µg/mL]	MIC (E. coli (ATCC25922)) [mg/L]	MIC (A. baumannii (ARC3495)) [mg/L]	MIC [1] [µg/mL]
CCN/C(=N\O)[C@@H]1c2c(cnn2C)[C@@H]2CN1C(=O)N2OS(=O)(=O)O (racemic) [Example 5]	** (** represents a k(on) of 100 to 10,000 M^−1 · s^−1)	* (* represents a k(on) < 100 M^−1 · s^−1)	** (** represents a k(on) of 100 to 10,000 M^−1 · s^−1)	> 16	< 8	> 16	> 16
CN/C(=N\OCCCCN)[C@@H]1c2c(cnn2C)[C@@H]2CN1C(=O)N2OS(=O)(=O)O (racemic) [Example 6]	* (* represents a k(on) < 100 M^−1 · s^−1)	* (* represents a k(on) < 100 M^−1 · s^−1)	** (** represents a k(on) of 100 to 10,000 M^−1 · s^−1)	8 to 16 (≈ 19.2 to 38.3 µM)	8 to 16 (≈ 19.2 to 38.3 µM)	> 16	> 16
CN/C(=N\OCCN)[C@@H]1c2c(cnn2C)[C@@H]2CN1C(=O)N2OS(=O)(=O)O (racemic) [Example 7]	* (* represents a k(on) < 100 M^−1 · s^−1)	* (* represents a k(on) < 100 M^−1 · s^−1)	** (** represents a k(on) of 100 to 10,000 M^−1 · s^−1)	8 to 16 (≈ 20.5 to 41.1 µM)	8 to 16 (≈ 20.5 to 41.1 µM)	> 16	8 to 16 (≈ 20.5 to 41.1 µM)
Cn1ncc2c1[C@@H](/C(=N/O)NCCCCN)N1C[C@@H]2N(OS(=O)(=O)O)C1=O (racemic) [Example 8]	* (* represents a k(on) < 100 M^−1 · s^−1)	* (* represents a k(on) < 100 M^−1 · s^−1)	* (* represents a k(on) < 100 M^−1 · s^−1)	> 16	< 8	> 16	> 16
CN(O)/C(=N\O)[C@@H]1c2c(cnn2C)[C@@H]2CN1C(=O)N2OS(=O)(=O)O (racemic) [Example 9]	** (** represents a k(on) of 100 to 10,000 M^−1 · s^−1)	* (* represents a k(on) < 100 M^−1 · s^−1)	** (** represents a k(on) of 100 to 10,000 M^−1 · s^−1)	< 8	< 8	8 to 16 (≈ 22.1 to 44.2 µM)	8 to 16 (≈ 22.1 to 44.2 µM)
Cn1ncc2c1[C@@H](/C(=N/O)NO)N1C[C@@H]2N(OS(=O)(=O)O)C1=O (racemic) [Example 10]	* (* represents a k(on) < 100 M^−1 · s^−1)	* (* represents a k(on) < 100 M^−1 · s^−1)	** (** represents a k(on) of 100 to 10,000 M^−1 · s^−1)	> 16	8 to 16 (≈ 23 to 45.9 µM)	> 16	8 to 16 (≈ 23 to 45.9 µM)
CON/C(=N\O)[C@@H]1c2c(cnn2C)[C@@H]2CN1C(=O)N2OS(=O)(=O)O (racemic) [Example 11]	** (** represents a k(on) of 100 to 10,000 M^−1 · s^−1)	* (* represents a k(on) < 100 M^−1 · s^−1)	*** (*** represents a k(on) > 10,000 M^−1 · s^−1)	8 to 16 (≈ 22.1 to 44.2 µM)	< 8	8 to 16 (≈ 22.1 to 44.2 µM)	< 8
Cn1ncc2c1[C@@H](/C(=N/O)NCc1ccc(N)cc1)N1C[C@@H]2N(OS(=O)(=O)O)C1=O (racemic) [Example 12]	** (** represents a k(on) of 100 to 10,000 M^−1 · s^−1)	* (* represents a k(on) < 100 M^−1 · s^−1)	** (** represents a k(on) of 100 to 10,000 M^−1 · s^−1)	> 16	< 8	> 16	> 16
Cn1ncc2c1[C@@H](/C(C#N)=N/O)N1C[C@@H]2N(OS(=O)(=O)O)C1=O (racemic) [Example 13]	* (* represents a k(on) < 100 M^−1 · s^−1)	* (* represents a k(on) < 100 M^−1 · s^−1)	** (** represents a k(on) of 100 to 10,000 M^−1 · s^−1)	> 16	< 8	> 16	> 16
CN/C(=N\OCC(N)=O)[C@@H]1c2c(cnn2C)[C@@H]2CN1C(=O)N2OS(=O)(=O)O [Example 57, pyridium (4R,8S)-8-((Z)—N′-(2-amino-2-oxoethoxy)-N-methylcarbamimidoyl)-1-methyl-6-oxo-4,8-dihydro-1H-4,7-methanopyrazolo[3,4-e][1,3]diazepin-5(6H)-yl hydrogen sulfate]	** (** represents a k(on) of 100 to 10,000 M^−1 · s^−1)	–	*** (*** represents a k(on) > 10,000 M^−1 · s^−1)	< 8	8 to 16	8 to 16	8 to 16
CN/C(=N\OCC(=O)O)[C@@H]1c2c(cnn2C)[C@@H]2CN1C(=O)N2OS(=O)(=O)O [Example 62, 2-((((Z)-((4R,8S)-1-methyl-6-oxo-5-(sulfooxy)-4,5,6,8-tetrahydro-1H-4,7-methanopyrazolo[3,4-e][1,3]diazepin-8-yl)(methylamino)methylene)amino)oxy)acetic acid]	** (** represents a k(on) of 100 to 10,000 M^−1 · s^−1)	–	*** (*** represents a k(on) > 10,000 M^−1 · s^−1)	< 8	8 to 16 (≈ 19.8 to 39.6 µM)	> 16	8 to 16 (≈ 19.8 to 39.6 µM)
CN/C(=N\OC(C)(C)C(=O)O)[C@@H]1c2c(cnn2C)[C@@H]2CN1C(=O)N2OS(=O)(=O)O [Example 63]	** (** represents a k(on) of 100 to 10,000 M^−1 · s^−1)	–	*** (*** represents a k(on) > 10,000 M^−1 · s^−1)	8 to 16 (≈ 18.5 to 37 µM)	< 8	> 16	> 16
CN1C(=O)CON=C1[C@@H]1c2c(cnn2C)[C@@H]2CN1C(=O)N2OS(=O)(=O)O [Example 64, ((4R,8S)-1-methyl-8-(4-methyl-5-oxo-5,6-dihydro-4H-1,2,4-oxadiazin-3-yl)-6-oxo-4,8-dihydro-1H-4,7-methanopyrazolo[3,4-e][1,3]diazepin-5(6H)-yl) hydrogen sulfate]	** (** represents a k(on) of 100 to 10,000 M^−1 · s^−1)	–	** (** represents a k(on) of 100 to 10,000 M^−1 · s^−1)	> 16	< 8	> 16	> 16
CN1C(=O)C(C)(C)ON=C1[C@@H]1c2c(cnn2C)[C@@H]2CN1C(=O)N2OS(=O)(=O)O [Example 65]	** (** represents a k(on) of 100 to 10,000 M^−1 · s^−1)	–	** (** represents a k(on) of 100 to 10,000 M^−1 · s^−1)	> 16	< 8	> 16	> 16
CN/C(=N\OC(C)=O)[C@@H]1c2c(cnn2C)[C@@H]2CN1C(=O)N2OS(=O)(=O)O [Example 69, pyridium (4R,8S)-8-((Z)—N′-acetoxy-N-methylcarbamimidoyl)-1-methyl-6-oxo-4,8-dihydro-1H-4,7-methanopyrazolo[3,4-e][1,3]diazepin-5(6H)-hydrogen sulfate]	** (** represents a k(on) of 100 to 10,000 M^−1 · s^−1)	–	*** (*** represents a k(on) > 10,000 M^−1 · s^−1)	> 16	8 to 16	> 16	8 to 16
CN/C(=N\OCC(=O)NOS(=O)(=O)O)[C@@H]1c2c(cnn2C)[C@@H]2CN1C(=O)N2OS(=O)(=O)O [Example 73, pyridium ((2-((((Z)-((4R,8S)-1-methyl-6-oxo-5-(sulfooxy)-4,5,6,8-tetrahydro-1H-4,7-methanopyrazolo[3,4-e][1,3]diazepin-8-yl)(methylamino)methylene)amino)oxy)acetamido)oxy)sulfonic acid]	** (** represents a k(on) of 100 to 10,000 M^−1 · s^−1)	–	*** (*** represents a k(on) > 10,000 M^−1 · s^−1)	8 to 16 (≈ 16 to 32 µM)	8 to 16 (≈ 16 to 32 µM)	> 16	8 to 16 (≈ 16 to 32 µM)
